# What was measured:
# [1] = Leaching test: 100 g fabric soaked in 10 liters stagnant distilled water, 3 days (72 hours); format: physicochemical; conditions: for Leaching of active ingredients / Leaching Test-Leaching of active ingredients: pad process; for Leaching of active ingredients: cured 180° C. 2 min; for Leaching Test-Leaching of active ingredients: 2 min
# Procedure: The test procedure for leaching was as follows: 100 g (grams) of fabric as well as control fabrics were soaked in 10 liters of stagnant distilled water in a closed wide mouth jar. After 3 days (72 hours), the water samples were tested for leached substances as per standard analytical methods.
# The test procedure for leaching was as follows: 100 g (grams) of fabric as well as control fabrics were soaked in 10 liters of stagnant distilled water in a closed wide mouth jar. After 3 days (72 hours), the water samples were tested for leached substances as per standard analytical methods. A weight of 100 g fabric was chosen because in the preferred embodiment of the water filter as described further below, each filter comprises a strip of fabric with 210 g/m^2, 3 meters long and 0.16 meters wide, which corresponds to 100 g of fabric.
# [2] = Leaching: 10 grams fabric in 100 milliliters distilled water, 7 days, GC-MS; format: physicochemical
# Procedure: To test for a potential leaching of the antimicrobial agents fixed to the textile material, the following test was performed. A test fabric of polyester 65%/cotton 35% with 210 g/m2 was treated with polyhexamethylenebiguanide (PHMB) 0.5%, silver chloride 0.075%, octadecylaminomethyl trihydroxysilylpropyl ammonium chloride (organosilane) 0.4%, and propiconazole 0.5%
# The treated textile material was put into distilled water at a ratio of 1:10. Specifically, a fabric of 10 grams was soaked in 100 milliliters of distilled water. The fabric was incubated in the water for 7 days at room temperature, i.e. between 21 and 25° C.
# Following said incubation time, the fabric was removed from the water and the exposed water was tested for the presence of the above five active ingredients using gas chromatography-mass spectrometry (GC-MS).
structure (smiles),measurement,setting,value
"CCCCCCCCCCCCCCCCCC[N+](C)(C)CCC[Si](OC)(OC)OC [Organosilane, dimethyloctadecyl[3-(trimethoxysilyl)propyl] ammonium chloride]",Leaching of active ingredients (in ppm),"[1]; exhaust 80° C., 60 min, dosage 1% o.w.f (test up to 5% o.w.f)",3 ppm
same,Leaching of active ingredients (in ppm),"[1]; exhaust 80° C., 60 min, dosage 2% o.w.f",22 ppm
same,Leaching of active ingredients (in ppm),"[1]; exhaust 80° C., 60 min, dosage 3% o.w.f",38 ppm
same,Leaching of active ingredients (in ppm),"[1]; exhaust 80° C., 60 min, dosage 4% o.w.f",52 ppm
same,Leaching of active ingredients (in ppm),"[1]; exhaust 80° C., 60 min, dosage 5% o.w.f",72 ppm
same,Leaching of active ingredients (in ppm),"[1]; exhaust 80 ° C., solution dosage 1% o.w.f, process time 10 min",40 ppm
same,Leaching of active ingredients (in ppm),"[1]; exhaust 80 ° C., solution dosage 1% o.w.f, process time 20 min",29 ppm
same,Leaching of active ingredients (in ppm),"[1]; exhaust 80 ° C., solution dosage 1% o.w.f, process time 30 min",25 ppm
same,Leaching of active ingredients (in ppm),"[1]; exhaust 80 ° C., solution dosage 1% o.w.f, process time 40 min",18 ppm
same,Leaching of active ingredients (in ppm),"[1]; exhaust 80 ° C., solution dosage 1% o.w.f, process time 50 min",15 ppm
same,Leaching of active ingredients (in ppm),"[1]; exhaust 80 ° C., solution dosage 1% o.w.f, process time 55 min",6 ppm
same,Leaching of active ingredients (in ppm),"[1]; exhaust 80 ° C., solution dosage 1% o.w.f, process time 60 min",2 ppm
same,Leaching of active ingredients (in ppm),"[1]; exhaust 80 ° C., solution dosage 1% o.w.f, process time 70 min",3 ppm
same,Leaching of active ingredients (in ppm),"[1]; exhaust 80 ° C., solution dosage 1% o.w.f, process time 80 min",4 ppm
same,Leaching of active ingredients (in ppm),"[1]; exhaust 80 ° C., solution dosage 1% o.w.f, process time 90 min",7 ppm
same,limit on the quantity of the agent that can be adhered to the textile in a non-leaching or substantially non-leaching manner,[1]; from Experimental examples I.1 and I.4,about 0.7 % o.w.f.
same,Leaching of active ingredients,[1]; mixture 1 gm/lit each,11 ppm
same,Leaching of active ingredients,"[1]; mixture 1 gm/lit each, after Washing",0.2 ppm
same,Leaching of active ingredients,[1]; mixture 5 gm/lit each,22 ppm
same,Leaching of active ingredients,"[1]; mixture 5 gm/lit each, after Washing",0.5 ppm
same,Leaching of active ingredients,[1]; mixture 10 gm/lit each,32 ppm
same,Leaching of active ingredients,"[1]; mixture 10 gm/lit each, after Washing",0.7 ppm
same,Leaching Test-Leaching of active ingredients,"[1]; single agent 5 gm/lit, curing 120° C.",8 ppm
same,Leaching Test-Leaching of active ingredients,"[1]; single agent 5 gm/lit, curing 140° C.",6 ppm
same,Leaching Test-Leaching of active ingredients,"[1]; single agent 5 gm/lit, curing 150° C.",5 ppm
same,Leaching Test-Leaching of active ingredients,"[1]; single agent 5 gm/lit, curing 160° C.",3 ppm
same,Leaching Test-Leaching of active ingredients,"[1]; single agent 5 gm/lit, curing 180° C.",1 ppm
same,Leaching Test-Leaching of active ingredients,"[1]; single agent 10 gm/lit, curing 120° C.",17 ppm
same,Leaching Test-Leaching of active ingredients,"[1]; single agent 10 gm/lit, curing 140° C.",13 ppm
same,Leaching Test-Leaching of active ingredients,"[1]; single agent 10 gm/lit, curing 150° C.",10 ppm
same,Leaching Test-Leaching of active ingredients,"[1]; single agent 10 gm/lit, curing 160° C.",9 ppm
same,Leaching Test-Leaching of active ingredients,"[1]; single agent 10 gm/lit, curing 180° C.",1 ppm
same,Leaching of active ingredient (in ppm),"[1]; solution dosage 0.10% o.w.f, exhaust temperature 40° C., process time 60 min",0 ppm
same,Leaching of active ingredient (in ppm),"[1]; solution dosage 0.10% o.w.f, exhaust temperature 60° C., process time 60 min",0 ppm
same,Leaching of active ingredient (in ppm),"[1]; solution dosage 0.10% o.w.f, exhaust temperature 65° C., process time 60 min",0 ppm
same,Leaching of active ingredient (in ppm),"[1]; solution dosage 0.10% o.w.f, exhaust temperature 70° C., process time 60 min",0 ppm
same,Leaching of active ingredient (in ppm),"[1]; solution dosage 0.10% o.w.f, exhaust temperature 75° C., process time 60 min",0 ppm
same,Leaching of active ingredient (in ppm),"[1]; solution dosage 0.10% o.w.f, exhaust temperature 80° C., process time 60 min",0 ppm
same,Leaching of active ingredient (in ppm),"[1]; solution dosage 0.10% o.w.f, exhaust temperature 85° C., process time 60 min",1 ppm
same,Leaching of active ingredient (in ppm),"[1]; solution dosage 0.10% o.w.f, exhaust temperature 90° C., process time 60 min",2 ppm
same,Leaching of active ingredient (in ppm),"[1]; solution dosage 0.10% o.w.f, exhaust temperature 95° C., process time 60 min",3 ppm
same,Leaching of active ingredient (in ppm),"[1]; solution dosage 0.20% o.w.f, exhaust temperature 40° C., process time 60 min",0 ppm
same,Leaching of active ingredient (in ppm),"[1]; solution dosage 0.20% o.w.f, exhaust temperature 60° C., process time 60 min",0 ppm
same,Leaching of active ingredient (in ppm),"[1]; solution dosage 0.20% o.w.f, exhaust temperature 65° C., process time 60 min",0 ppm
same,Leaching of active ingredient (in ppm),"[1]; solution dosage 0.20% o.w.f, exhaust temperature 70° C., process time 60 min",0 ppm
same,Leaching of active ingredient (in ppm),"[1]; solution dosage 0.20% o.w.f, exhaust temperature 75° C., process time 60 min",0 ppm
same,Leaching of active ingredient (in ppm),"[1]; solution dosage 0.20% o.w.f, exhaust temperature 80° C., process time 60 min",0 ppm
same,Leaching of active ingredient (in ppm),"[1]; solution dosage 0.20% o.w.f, exhaust temperature 85° C., process time 60 min",3 ppm
same,Leaching of active ingredient (in ppm),"[1]; solution dosage 0.20% o.w.f, exhaust temperature 90° C., process time 60 min",3 ppm
same,Leaching of active ingredient (in ppm),"[1]; solution dosage 0.20% o.w.f, exhaust temperature 95° C., process time 60 min",4 ppm
same,Leaching of active ingredient (in ppm),"[1]; solution dosage 0.50% o.w.f, exhaust temperature 40° C., process time 60 min",0 ppm
same,Leaching of active ingredient (in ppm),"[1]; solution dosage 0.50% o.w.f, exhaust temperature 60° C., process time 60 min",2 ppm
same,Leaching of active ingredient (in ppm),"[1]; solution dosage 0.50% o.w.f, exhaust temperature 65° C., process time 60 min",1 ppm
same,Leaching of active ingredient (in ppm),"[1]; solution dosage 0.50% o.w.f, exhaust temperature 70° C., process time 60 min",1 ppm
same,Leaching of active ingredient (in ppm),"[1]; solution dosage 0.50% o.w.f, exhaust temperature 75° C., process time 60 min",1 ppm
same,Leaching of active ingredient (in ppm),"[1]; solution dosage 0.50% o.w.f, exhaust temperature 80° C., process time 60 min",1 ppm
same,Leaching of active ingredient (in ppm),"[1]; solution dosage 0.50% o.w.f, exhaust temperature 85° C., process time 60 min",4 ppm
same,Leaching of active ingredient (in ppm),"[1]; solution dosage 0.50% o.w.f, exhaust temperature 90° C., process time 60 min",5 ppm
same,Leaching of active ingredient (in ppm),"[1]; solution dosage 0.50% o.w.f, exhaust temperature 95° C., process time 60 min",6 ppm
same,Leaching of active ingredient (in ppm),"[1]; solution dosage 0.80% o.w.f, exhaust temperature 40° C., process time 60 min",0 ppm
same,Leaching of active ingredient (in ppm),"[1]; solution dosage 0.80% o.w.f, exhaust temperature 60° C., process time 60 min",3 ppm
same,Leaching of active ingredient (in ppm),"[1]; solution dosage 0.80% o.w.f, exhaust temperature 65° C., process time 60 min",3 ppm
same,Leaching of active ingredient (in ppm),"[1]; solution dosage 0.80% o.w.f, exhaust temperature 70° C., process time 60 min",2 ppm
same,Leaching of active ingredient (in ppm),"[1]; solution dosage 0.80% o.w.f, exhaust temperature 75° C., process time 60 min",1 ppm
same,Leaching of active ingredient (in ppm),"[1]; solution dosage 0.80% o.w.f, exhaust temperature 80° C., process time 60 min",1 ppm
same,Leaching of active ingredient (in ppm),"[1]; solution dosage 0.80% o.w.f, exhaust temperature 85° C., process time 60 min",5 ppm
same,Leaching of active ingredient (in ppm),"[1]; solution dosage 0.80% o.w.f, exhaust temperature 90° C., process time 60 min",6 ppm
same,Leaching of active ingredient (in ppm),"[1]; solution dosage 0.80% o.w.f, exhaust temperature 95° C., process time 60 min",8 ppm
same,Leaching of active ingredient (in ppm),"[1]; solution dosage 1.00% o.w.f, exhaust temperature 40° C., process time 60 min",0 ppm
same,Leaching of active ingredient (in ppm),"[1]; solution dosage 1.00% o.w.f, exhaust temperature 60° C., process time 60 min",6 ppm
same,Leaching of active ingredient (in ppm),"[1]; solution dosage 1.00% o.w.f, exhaust temperature 65° C., process time 60 min",6 ppm
same,Leaching of active ingredient (in ppm),"[1]; solution dosage 1.00% o.w.f, exhaust temperature 70° C., process time 60 min",3 ppm
same,Leaching of active ingredient (in ppm),"[1]; solution dosage 1.00% o.w.f, exhaust temperature 75° C., process time 60 min",2 ppm
same,Leaching of active ingredient (in ppm),"[1]; solution dosage 1.00% o.w.f, exhaust temperature 80° C., process time 60 min",1 ppm
same,Leaching of active ingredient (in ppm),"[1]; solution dosage 1.00% o.w.f, exhaust temperature 85° C., process time 60 min",7 ppm
same,Leaching of active ingredient (in ppm),"[1]; solution dosage 1.00% o.w.f, exhaust temperature 90° C., process time 60 min",9 ppm
same,Leaching of active ingredient (in ppm),"[1]; solution dosage 1.00% o.w.f, exhaust temperature 95° C., process time 60 min",10 ppm
same,"Extracted water Conc, ppm",[2],BDL (BDL-below detection limit Detection limit: 1 parts per million (ppm))

# Source: patent US20210254272A1, “TEXTILES HAVING ANTIMICROBIAL PROPERTIES” (Livinguard AG, priority 2015, published 2021)
